According to patent US20140243292A1, “SUBSITUTED 2-(CHROMAN-6-YLOXYL)-THIAZOLES AND THEIR USE AS PHARMACEUTICALS” (Sanofi, priority 2011, published 2014):

Molecular target: T1, human NCX1 (Homo sapiens, UniProt P32418)
T1 construct: expressed in transfected cells
Test: NCX1 inhibition, reverse mode (Ca2+ influx into cells), FLIPR Fluo-4 assay
Assay type: cell-based
Settings: inhibition of NCX1 in reverse mode (Ca2+ influx into cells); read-out: NCX1rv IC50
From the text: The sodium/calcium exchanger NCX1 can transport calcium ions and sodium ions through the cell membrane. The transport is an exchange of Ca^2+ and Na^+ in two directions depending on membrane potential and ion gradients. At the first direction, named “forward mode” or “calcium export mode”, Ca^2+ is transported out of the cell and Na^+ is transported into the cell. At the other direction, named “reverse mode” or “calcium import mode”, the transport directions are vice versa. The effect of the compounds of the invention on NCX1 was determined in CHO cells stably expressing human NCX1 (gene symbol SLC8A1; cf. WO 2009/115238). The assay is based on the monitoring of intracellular Ca^2+ concentrations using a calcium-sensitive fluorescence dye which is detected by means of a FLIPR device (Fluorimetric Imaging Plate Reader, Molecular Devices).
The assay is based on the monitoring of intracellular Ca^2+ concentrations using the calcium-sensitive dye Fluo-4. CHO cells expressing NCX1 were loaded with the dye by means of the acetoxymethyl ester Fluo-4 AM (Invitrogen, F14202), which is cleaved intracellularly by esterase activity to yield the charged species of free Fluo-4. After an preincubation period with the test compound, Gramicidine (Sigma, G5002) was added. Gramicidine is an ionophor for Na^+ ions mediating an increase of intracellular Na^+ ions. Consequently, intracellular Na^+ ions are exchanged against extracellular Ca^2+ ions (Ca^2+ influx, reverse mode). The intracellular elevation of Ca^2+ ions was detected by measuring the fluorescence of Fluo-4 at a wavelength of 520 nm by a FLIPR device.
Briefly, for the reverse mode transport assay 18000 cells per well were seeded into a 96 well microplate (Corning COSTAR 3904) and incubated overnight in culture medium (1× Nut Mix F12 (Ham) (Gibco, 21765-029); 10% (v/v) fetal calf serum (PAA Gold, A15-649); 450 μg/ml Geneticin (Gibco, 10131-027)). A total volume of 100 μl medium per well was used. For the preparation of the FLIPR assay, the culture medium was removed from the plates and 100 μl of dye solution (2 μM Fluo-4 AM; 0.02% (v/v) Pluronic F-127 (20%, Invitrogen, P3000MP); 0.1% (v/v) bovine albumin solution (30% (v/v), Sigma, A9205) in assay buffer (133.8 mM NaCl (Sigma, S5886); 4.7 mM KCl (Sigma, P3911); 1.25 mM MgCl2 (Merck, 1.05833.0250); 3.5 mM CaCl2 (Merck, 1.02083.0250); 5 mM glucose (Sigma, G7021); 10 mM Hepes (Sigma, H4034); 0.01% (v/v) Pluronic F-127 (5%, Sigma, P2443); 2.5 mM Probenecid (Maybridge, SB00915EB); pH 7.4)) were added into each well. The plates were incubated in the dark at room temperature for 80 min. After the incubation period, the dye solution was removed and the wells were washed with 100 μl of assay buffer. Then 80 μl of a solution of the test compound in assay buffer in different concentrations were added into the wells. The plates were incubated at 16° C. for 45 min. Meanwhile a 60 μM solution of Gramicidine in assay buffer (4° C.) was prepared and stored in the wells of a 96 well microplate (96 well microplate, polypropylene, U-shape (Greiner Bio-One, 650201)) at 4° C. until measurement was started. The fluorescence monitoring was performed at 240 measuring points with measurement intervals of 2 sec. After the fifth measuring point, 40 μl of the Gramicidine solution were added to each well of the assay plates to give a final Gramicidine concentration of 20 μM. For the determination of the IC50 values the minimal fluorescence value was subtracted from the maximal fluorescence value for all measuring points. The calculation of the IC50 values via the percentage inhibitions of Ca^2+ influx into cells (reverse mode) effected by the test compound was performed in Biost@t Speed 2.0.

| Compound | IC50 [nM] |
| --- | --- |
| c1ccc(C2CCc3cc(Oc4ncc(CN5C6CCC5CC6)s4)ccc3O2)cc1 (centres unmarked) [compound 121] | 600 |
| CN1CCN(Cc2cnc(Oc3ccc4c(c3)CCC(c3ccccc3)O4)s2)CC1 (centres unmarked) [compound 122] | 800 |
| CN1CCOc2cc(S(=O)(=O)NCc3cnc(Oc4ccc5c(c4)CCC(c4ccccc4)O5)s3)ccc21 (centres unmarked) [compound 123] | 1100 |
| Cc1nc2ccc(S(=O)(=O)NCc3cnc(Oc4ccc5c(c4)CCC(c4ccccc4)O5)s3)cc2s1 (centres unmarked) [compound 124] | 900 |
| Cc1nc(C)c(S(=O)(=O)NCc2cnc(Oc3ccc4c(c3)CCC(c3ccccc3)O4)s2)s1 (centres unmarked) [compound 126] | 600 |
| Cn1nccc1S(=O)(=O)NCc1cnc(Oc2ccc3c(c2)CCC(c2ccccc2)O3)s1 (centres unmarked) [compound 128] | 300 |
| Cn1cc(S(=O)(=O)NCc2cnc(Oc3ccc4c(c3)CCC(c3ccccc3)O4)s2)cn1 (centres unmarked) [compound 129] | 900 |
| Cc1c(S(=O)(=O)NCc2cnc(Oc3ccc4c(c3)CCC(c3ccccc3)O4)s2)cnn1C(C)C (centres unmarked) [compound 130] | 700 |
| Cc1n[nH]c(C)c1S(=O)(=O)NCc1cnc(Oc2ccc3c(c2)CCC(c2ccccc2)O3)s1 (centres unmarked) [compound 131] | 23800 |
| CCn1cc(S(=O)(=O)NCc2cnc(Oc3ccc4c(c3)CCC(c3ccccc3)O4)s2)cn1 (centres unmarked) [compound 132] | 300 |
| c1ccc(C2CCc3cc(Oc4ncc(CNCCCn5cccn5)s4)ccc3O2)cc1 (centres unmarked) [compound 142] | 300 |
| C1=C(CNCc2cnc(Oc3ccc4c(c3)CCC(c3ccccc3)O4)s2)N2CCCN=C2S1 (centres unmarked) [compound 144] | 800 |
| c1ccc(C2CCc3cc(Oc4ncc(CNCc5cccnc5N5CCOCC5)s4)ccc3O2)cc1 (centres unmarked) [compound 145] | 900 |
| Cc1noc(C)c1CCCNCc1cnc(Oc2ccc3c(c2)CCC(c2ccccc2)O3)s1 (centres unmarked) [compound 153] | 500 |

The next lines start with the values.

| IC50 [nM] | Compound |
| --- | --- |
| 1100 | Cc1ncc(S(=O)(=O)NCc2cnc(Oc3ccc4c(c3)CCC(c3ccccc3)O4)s2)n1C (centres unmarked) [compound 127] |
| 400 | Cc1c(S(=O)(=O)NCc2cnc(Oc3ccc4c(c3)CCC(c3ccccc3)O4)s2)cnn1C (centres unmarked) [compound 133] |
| 500 | Cc1cnc(CNCc2cnc(Oc3ccc4c(c3)CCC(c3ccccc3)O4)s2)cn1 (centres unmarked) [compound 135] |
| 500 | Cc1ccn(CCNCc2cnc(Oc3ccc4c(c3)CCC(c3ccccc3)O4)s2)n1 (centres unmarked) [compound 136] |
| 400 | Cc1nn(C)cc1CNCc1cnc(Oc2ccc3c(c2)CCC(c2ccccc2)O3)s1 (centres unmarked) [compound 137] |
| 300 | Cc1c(CNCc2cnc(Oc3ccc4c(c3)CCC(c3ccccc3)O4)s2)cnn1C (centres unmarked) [compound 138] |
| 500 | CCn1cc(CNCc2cnc(Oc3ccc4c(c3)CCC(c3ccccc3)O4)s2)c(C)n1 (centres unmarked) [compound 139] |
| 200 | Cc1cc(CNCc2cnc(Oc3ccc4c(c3)CCC(c3ccccc3)O4)s2)no1 (centres unmarked) [compound 140] |
| 400 | Cc1cc(CNCc2cnc(Oc3ccc4c(c3)CCC(c3ccccc3)O4)s2)n(C)n1 (centres unmarked) [compound 141] |
| 500 | Cc1cc(C)nc(CNCc2cnc(Oc3ccc4c(c3)CCC(c3ccccc3)O4)s2)n1 (centres unmarked) [compound 143] |
| 200 | Cn1nccc1CNCc1cnc(Oc2ccc3c(c2)CCC(c2ccccc2)O3)s1 (centres unmarked) [compound 146] |
| 300 | Cc1cc(CNCc2cnc(Oc3ccc4c(c3)CCC(c3ccccc3)O4)s2)nn1C (centres unmarked) [compound 147] |
| 400 | Cc1c(C(C)NCc2cnc(Oc3ccc4c(c3)CCC(c3ccccc3)O4)s2)cnn1C (centres unmarked) [compound 148] |
| 300 | c1ccc(C2CCc3cc(Oc4ncc(CNCCn5cccn5)s4)ccc3O2)cc1 (centres unmarked) [compound 149] |
| 800 | Cc1cc(C)n(CCNCc2cnc(Oc3ccc4c(c3)CCC(c3ccccc3)O4)s2)n1 (centres unmarked) [compound 150] |
| 400 | Cc1csc(CCNCc2cnc(Oc3ccc4c(c3)CCC(c3ccccc3)O4)s2)n1 (centres unmarked) [compound 151] |
| 300 | Cc1noc(C)c1CNCc1cnc(Oc2ccc3c(c2)CCC(c2ccccc2)O3)s1 (centres unmarked) [compound 152] |
| 300 | Oc1cc(CNCc2cnc(Oc3ccc4c(c3)CCC(c3ccccc3)O4)s2)ccn1 (centres unmarked) [compound 154] |
